Reference: patent US20090325858A1, “Reduction of Zinc-Induced Neurotoxic Injury By Blockade of Nitric Oxide Synthesis” (ANDRO DIAGNOSTICS, INC., priority 2003, published 2009)
pKd: −log10 of the molar value. Entries after “also recorded” stand apart in the source; their conditions may differ.

Assays:
[1] = target: Zn^2+-bound CA (bovine CA I); conditions: cited from earlier work
hippocampal brain slice = experiment: Zn2+ release into extracellular fluid of acute hippocampal brain slices, EnZin fluorescence; format: cell-based, rat; conditions: immediately after adding to hippocampal slice bath
Method: Experiments were performed on transverse hippocampal splices taken from 5 to 6 week-old male rats. In all, 41 hippocampal slices and 10 additional hippocampi taken directly from intact animals (“freshly frozen” see below) were studied quantitatively. After halothane (3.5%) inhalation in the anesthetic box, the rats were perfused with 4° C. artificial cerebrospinal fluid (ACSF) (NaCl was substituted by 190 mM sucrose) intracardially for 1 minute (76-77).
After perfusion, the rats were decapitated and the hippocampi were dissected out and placed in cold (4° C.) artificial cerebrospinal fluid. Transverse slice (400 μm) were cut with a vibratome (Campden Vibraslice, model # 752) and placed on a nylon mesh in an incubation chamber. […] The slices were kept at 20° C. in oxygenated (95% O2, 5% CO2) artificial cerebrospinal fluid for 30 minute before stimulation. The gas mixture was also bubbled through the water bath in the chamber and vented over the chamber for >30 minute before the experiment started. The standard artificial cerebrospinal fluid comprised 130 mM NaCl, 3.5 mM KCl, 1.25 mM NaH2PO4, 2 mM MgSO4, 2 mM CaCl2, 20 mM NaHCO3, 2 mM ascorbic acid and 10 mM D-glucose.
For measuring zinc release with EnZin, (apoCA+ABDN), the slices were epi-illuminated with 420 nm light and imaged through both 530 nm and 700 nm band pass filters. […] The ABDN is fluorescent at 600 nm when free, but fluoresces at 560 nm when bound to the Zn+CA (“holo” CA). Thus, the CA is the zinc detector, and the ABDN is the ratiometric fluorescent reporter. A variety of CA with different zinc affinities for different zinc measurement ranges can be generated (78).
The ratio of the 520/700 nm images were then calculated (Optimus), giving a ratiometric image of zinc concentration. In this fluorescence system, the affinity of the EnZin is so high (Kd=[…]) that it can be treated as infinite. With a stoichiometric excess of EnZin, the percent occupancy of the EnZin by Zn^2+ can be used as the modulator of fluorescence intensity. […]

zinc-positive neurons = experiment: Pilocarpine-induced seizures, number of zinc-positive neurons; format: in vivo
[2] = test system: zinc-positive neurons in hilus and hippocampal cortex (CA3); experiment: Traumatic brain injury plus hypoperfusion, number of zinc-stained neurons; format: in vivo, rat; conditions: for sparing in the number of zinc-injured (zinc-positive) neurons: trauma plus hypoperfusion
From the text: Male Sprague-Dawley rats weighing 350-400 g were anesthetized with isoflurane in an anesthetic chamber, intubated, and mechanically ventilated with 1.5-2.0% isoflurane in O2:room air (70:30) using a volume ventilator (EDCO Scientific, Chapel Hill, N.C.). Polyethylene cannulae were placed in both femoral arteries and one femoral vein for arterial pressure monitoring and hemorrhage and for drug infusion, respectively. Rectal and temporalis muscle temperatures were monitored using telethermometers (Yellow Springs Instruments, Yellow Springs, Ohio). Rectal temperature was maintained using a thermostatically controlled water blanket (Gaymar, Orchard Park, N.Y.).
Rats were prepared for parasagittal fluid-percussion traumatic brain injury (TBI) and for laser Doppler flowometry as described below. Intracranial pressure (ICP) was monitored continuously using a Camino probe (V420, Camino Laboratories, San Diego, Calif.) placed in a lateral ventricle through a small craniotomy placed posterior and lateral to the fluid percussion injury site. Isoflurane was lowered to 1.5%; the rats were connected to the trauma device, and subjected to moderate or severe traumatic brain injury.
After traumatic brain injury (or sham-TBI) blood was withdrawn from a catheter in a femoral artery to reduce MAP to 60 mmHg. Mean arterial pressure was maintained at 60 mmHg for 45 minutes during which time cerebral blood flow and ICP were measured. […] Post-resuscitation measurements were then performed. An arterial blood sample was withdrawn with each measurement series to determine PaCO2, PaO2, pH and hemoglobin concentration or hematocrit.
Fluid-percussion traumatic brain injury is a clinically relevant model that has been used in many studies of traumatic brain injury in cats, rats, and pigs (79, 82). The trauma device consists of a Plexiglas cylinder 60 cm long and 4.5 cm in diameter. One end of the device is connected to a hollow metal cylinder housing a pressure transducer (Statham PA856-100) and the other end is closed by a Plexiglas piston mounted on O-rings.
The piston is struck by a 4.8-kg steel pendulum dropped from a variable height, which determines the intensity of injury. The pressure pulse is recorded on a storage oscilloscope triggered photoelectrically by the descent of the pendulum. Sham-injured rats were connected to the trauma device but were not injured.
The effects of a moderate (2.0 atm) or severe (3.0 atm) levels of injury were studied. Moderate injury (2.1 atm) is associated with 10% mortality, reductions in EEG amplitude for 10 to 15 min, brief (<5 min) suppression of reflexes (corneal, pinna, paw flexion to pinch, righting), and return of spontaneous locomotion within 10 min. […]

hippocampal slice = experiment: Zn2+ release from hippocampal slice in oxygen-glucose deprivation (OGD) and reperfusion, Newport Green; format: cell-based, rat; conditions: slices pretreated, 1 mM
From the text: In the in vitro model, the ischemia was translated to the hippocampal slice using the established oxygen-glucose deprivation (OGD) paradigm. Zinc in the extracellular fluids of the slice was monitored using membrane impermeable Newport Green as a sensor for Zn^2+ in the extracellular fluid as described herein. The release results paralleled the results obtained in vivo from the rabbits. Zinc was released into the extracellular fluid at the onset of OGD, then even more release was observed during reperfusion (FIG. 8).

[3] = test system: vesicular zinc in axonal boutons of the hippocampal formation; conditions: for vesicular zinc staining of boutons (qualitative): TSQ staining, 2 hr after infusion, hippocampal formation
Method: Adult Sprague-Dawley rats (male, 300-350 g) were anesthetized with halothane, and mounted in a stereotaxic instrument where a bone defect was opened after reflection of the scalp.
For measuring the normal concentration of vesicular zinc in the tissue after treatment with various nitric oxide generators, frozen tissue sections were cut in a closed-top cryostat at 30 μm (−14° C.). For whole brains, starting at 3.6 mm caudal to bregma, every 3rd section was saved until 5-10 sections were obtained. For tissue slices studied in vitro, every section was saved (typically 6-9 per brain slice). After cutting, the sections were thawed onto glass slides, dried, then stained with TSQ (80-82).
The sections were stained with TSQ, ((N-(6-methoxy-8-quinolyl)-para-1-toluenesulfonamide, Molecular Probes), as described previously (80) for fluorescence visualization of Zn^2+. Briefly, the frozen, unfixed sections were immersed in a solution of TSQ (4.5 μM) in 140 mM sodium barbital and 140 mM sodium acetate buffer (pH 10-10.5) for 60 seconds, rinsed for 60 seconds in normal saline (NaCl, 0.9%), then viewed and imaged in the microscope with no coverslip while still damp. A SPOT2 cooled CCD camera was used to capture the fluorescence images (10×n.a. 0.65) at 12 bit resolution for subsequent quantitation of zinc-TSQ fluorescence intensity. Control and treated tissues were always digitized in the same sitting to guard against sensitivity changes in the system.
Rats were anesthetized, a microsyringe and needle were lowered into the hippocampal formation or neocerebellar cortex by stereotaxis and then nitric oxide generators were infused into the tissue. After 120 minutes of survival, the rats were sacrificed and the brains were cut and stained to show the location and concentration of the weakly bound Zn^2+ that is normally sequestered in the presynaptic boutons, i.e., vesicular zinc. Zinc localization and quantification were determined by TSQ fluorescence staining.

For `NS(=O)(=O)c1ccc(NCCO)c2nonc12` [ABDN], the pKd [1] is given as 4.35.
In the case of `CC(=O)N[C@H](C(=O)O)C(C)(C)SN=O` [SNAP, S-nitroso-N-acetyl-L-penicillamine], the “Zn^2+ fluorescence in the slice bath / extracellular fluid” value (hippocampal brain slice) was “rapid (within seconds) increase; also recorded: raised”.
With `COC(=O)[C@@H](N)CCCNC(=N)N[N+](=O)[O-]` [L-NAME, N(6)-nitro-L-arginine methyl ester] the “number of zinc-positive neurons after excitotoxic insult (qualitative)” value (zinc-positive neurons) was “dramatically reduces”, the “number of zinc-stained cells (qualitative)” value ([2]; TBI plus hypoperfusion, prior administration) was “substantial reduction; also recorded: greatly reduces” and the “number of zinc-positive neurons after excitotoxic insult (qualitative)” value ([2]; blunt-trauma) was “dramatically reduces”. For the same compound, the “sparing in the number of zinc-injured (zinc-positive) neurons” value ([2]; hilus) was 50%, the “sparing in the number of zinc-injured (zinc-positive) neurons” value ([2]; hippocampal cortex (CA3)) was 50% and the “Zn^2+ release into extracellular fluid after OGD and reperfusion” value (hippocampal slice) was “almost completely blocked”.
For `NCCCNCCCCNCCCN` [Spermine], the “Zn^2+ fluorescence in the slice bath / extracellular fluid” value (hippocampal brain slice) was “no effect” and the “vesicular zinc staining of boutons (qualitative)” value [3] was “unaffected”.
With `NCCCNCCCCN(CCCN)/[N+]([O-])=N/O` [Spermine NO, Spermine-NONOate] the “Zn^2+ fluorescence in the slice bath / extracellular fluid” value (hippocampal brain slice) was “rapid (within seconds) increase”, the “vesicular zinc staining of boutons (qualitative)” value [3] was “depletes zinc” and the “vesicular zinc in the hilus reduced compared to control” value ([3]; quantitative microfluorimetric analysis, hilus, in vivo infusion) was “about 60%”.
